Laboratory results published in ChEMBL document CHEMBL6134844, “Development of Next-Generation Antimalarial Acridones with Radical Cure Potential” (J Med Chem, 2025).
The source made the active and inactive calls. No cut-off for these calls is given here.

Tests used:
[1] = Half life in male ICR-CD1 mouse liver at 40 mg/kg, po; type: ADME, organism-based
Plasmodium falciparum [2] = test: Antiplasmodial activity against asexual blood-stage (ABS) MDR Plasmodium falciparum Dd2 infected in human erythrocytes assessed as reduction in fluorescence measured after 72 hrs by Malaria SYBR Green I-based Fluorescence (MSF) assay; type: functional, organism-based; details: Dd2, Erythrocyte
[3] = Mutagenicity in Salmonella typhimurium TA100 assessed as background reversion rate up to 10 uM without S-9 metabolic activation by AMES test; type: toxicity; details: salmonella enterica subsp. enterica serovar typhimurium
Plasmodium berghei [4] = test: In vivo antiplasmodial activity against luciferase expressing liver stage Plasmodium berghei ANKA MRA-868 sporozoites infected in Albino C57BL/6 mouse model assessed as visible parasites at 40 mg/kg, po daily measured 24 to 48 hrs by real-time In Vivo Imaging System (IVIS); type: functional, organism-based; details: time 24-48 hrs
[5] = Tmax in male ICR-CD1 mouse liver at 40 mg/kg, po; type: ADME, organism-based
[6] = Selectivity index, ratio of CC50 for Macaca mulatta hepatocytes to IC50 for antiplasmodial activity against schizont Plasmodium cynomolgi B strain infected in Macaca mulatta hepatocytes incubated with sporozoite containing salivary gland homogenate obtained from dissected Anopheles dirus mosquitoes (infected with Plasmodium cynomolgi B strain) treatment started on day 4 post infection and continued daily for 4 days into fresh changed media until day 8 assessed as Liver stage (LS) activity by measuring prophylactic mode by immunofluorescent staining analysis; type: toxicity, cell-based; details: rhesus monkey, read-out: Selectivity Index
[7] = AUCextrap in male ICR-CD1 mouse liver at 40 mg/kg, po; type: ADME, organism-based
Plasmodium cynomolgi [8] = test: Antiplasmodial activity against hypnozoite Plasmodium cynomolgi B strain infected in Macaca mulatta hepatocytes incubated with sporozoite containing salivary gland homogenate obtained from dissected Anopheles dirus mosquitoes (infected with Plasmodium cynomolgi B strain) treatment started on day 4 post infection and continued daily for 4 days into fresh changed media until day 8 assessed as Liver stage (LS) activity by measuring radical cure mode by immunofluorescent staining analysis; type: functional, organism-based; details: Hepatocyte
[9] = Selectivity index, ratio of CC50 for Macaca mulatta hepatocytes to IC50 for antiplasmodial activity against schizont Plasmodium cynomolgi B strain infected in Macaca mulatta hepatocytes incubated with sporozoite containing salivary gland homogenate obtained from dissected Anopheles dirus mosquitoes (infected with Plasmodium cynomolgi B strain) treatment started on day 4 post infection and continued daily for 4 days into fresh changed media until day 8 assessed as Liver stage (LS) activity by measuring radical cure mode by immunofluorescent staining analysis; type: toxicity, cell-based; details: rhesus monkey, read-out: Selectivity Index
[10] = Mutagenicity in Salmonella typhimurium TA100 assessed as background reversion rate up to 10 uM with S-9 metabolic activation by AMES test; type: toxicity; details: salmonella enterica subsp. enterica serovar typhimurium
Plasmodium berghei [11] = test: In vivo antiplasmodial activity against luciferase expressing liver stage Plasmodium berghei ANKA MRA-868 sporozoites infected in Albino C57BL/6 mouse model assessed as protection at 10 mg/kg, po daily measured 24 to 72 hrs by real-time In Vivo Imaging System (IVIS); type: functional
Plasmodium yoelii [12] = test: In vivo antiplasmodial activity against asexual blood-stage (ABS) Plasmodium yoelii MRA-428 infected in 4-day suppression CF1 mouse model assessed as reduction in parasitemia by measuring cured mouse at 100 mg/kg, po single dose treated 24 hrs post infection; type: functional, organism-based
[13] = Toxicity in CF1 mouse infected with asexual blood-stage (ABS) Plasmodium yoelii MRA-428 assessed as lethargy at 0.3 to 30 mg/kg, po treated 24 hrs post infection measured after 4 days; type: organism-based; details: in vivo, 96 h, dose 0.3-30 mg/kg, time 4 day
[14] = Toxicity in CF1 mouse infected with asexual blood-stage (ABS) Plasmodium yoelii MRA-428 assessed as weight loss at 0.3 to 30 mg/kg, po treated 24 hrs post infection measured after 4 days; type: organism-based; details: in vivo, 96 h, dose 0.3-30 mg/kg, time 4 day
[15] = Mutagenicity in Salmonella typhimurium TA98 assessed as background reversion rate up to 10 uM without S-9 metabolic activation by AMES test; type: toxicity; details: salmonella enterica subsp. enterica serovar typhimurium
[16] = Toxicity in CF1 mouse infected with asexual blood-stage (ABS) Plasmodium yoelii MRA-428 assessed as ruffled hair at 0.3 to 30 mg/kg, po treated 24 hrs post infection measured after 4 days; type: organism-based; details: in vivo, 96 h, dose 0.3-30 mg/kg, time 4 day
Plasmodium cynomolgi [17] = test: Antiplasmodial activity against schizont Plasmodium cynomolgi B strain infected in Macaca mulatta hepatocytes incubated with sporozoite containing salivary gland homogenate obtained from dissected Anopheles dirus mosquitoes (infected with Plasmodium cynomolgi B strain) treatment started on day 4 post infection and continued daily for 4 days into fresh changed media until day 8 assessed as Liver stage (LS) activity by measuring prophylactic mode by immunofluorescent staining analysis; type: functional, organism-based; details: Hepatocyte
Plasmodium yoelii [18] = test: In vivo antiplasmodial activity against asexual blood-stage (ABS) Plasmodium yoelii MRA-428 infected in 4-day suppression CF1 mouse model assessed as reduction in parasitemia by measuring cured mouse at 60 mg/kg, po single dose treated 24 hrs post infection; type: functional, organism-based
Plasmodium falciparum [19] = test: Antiplasmodial activity against asexual blood-stage (ABS) ATV-resistant clinical isolate Plasmodium falciparum Tm90-C2B infected in human erythrocytes assessed as reduction in fluorescence measured after 72 hrs by Malaria SYBR Green I-based Fluorescence (MSF) assay; type: functional, organism-based; details: Erythrocyte
[20] = Selectivity index, ratio of CC50 for Macaca mulatta hepatocytes to IC50 for antiplasmodial activity against hypnozoite Plasmodium cynomolgi B strain infected in Macaca mulatta hepatocytes incubated with sporozoite containing salivary gland homogenate obtained from dissected Anopheles dirus mosquitoes (infected with Plasmodium cynomolgi B strain) treatment started on day 4 post infection and continued daily for 4 days into fresh changed media until day 8 assessed as Liver stage (LS) activity by measuring prophylactic mode by immunofluorescent staining analysis; type: toxicity, cell-based; details: rhesus monkey, read-out: Selectivity Index
[21] = Selectivity index, ratio of CC50 for Macaca mulatta hepatocytes to IC50 for antiplasmodial activity against hypnozoite Plasmodium cynomolgi B strain infected in Macaca mulatta hepatocytes incubated with sporozoite containing salivary gland homogenate obtained from dissected Anopheles dirus mosquitoes (infected with Plasmodium cynomolgi B strain) treatment started on day 4 post infection and continued daily for 4 days into fresh changed media until day 8 assessed as Liver stage (LS) activity by measuring radical cure mode by immunofluorescent staining analysis; type: toxicity, cell-based; details: rhesus monkey, read-out: Selectivity Index
[22] = Cmax in male ICR-CD1 mouse liver at 40 mg/kg, po; type: ADME, organism-based
Plasmodium falciparum [23] = test: Antiplasmodial activity against asexual blood-stage (ABS) CQ-sensitive Plasmodium falciparum D6 infected in human erythrocytes assessed as reduction in fluorescence measured after 72 hrs by Malaria SYBR Green I-based Fluorescence (MSF) assay; type: functional, organism-based; details: D6, Erythrocyte
Hepatocyte = test: Cytotoxicity against Macaca mulatta hepatocytes assessed as cell viability measured after 48 hrs by MTT assay; type: toxicity, cell-based; details: rhesus monkey, 48 h
[24] = Cmax in male ICR-CD1 mouse plasma at 40 mg/kg, po; type: ADME, organism-based
[25] = mouse, microsomes, 1 h
[26] = MRTlast in male ICR-CD1 mouse liver at 40 mg/kg, po; type: ADME, organism-based
Plasmodium cynomolgi [27] = test: Antiplasmodial activity against hypnozoite Plasmodium cynomolgi B strain infected in Macaca mulatta hepatocytes incubated with sporozoite containing salivary gland homogenate obtained from dissected Anopheles dirus mosquitoes (infected with Plasmodium cynomolgi B strain) treatment started on day 4 post infection and continued daily for 4 days into fresh changed media until day 8 assessed as Liver stage (LS) activity by measuring prophylactic mode by immunofluorescent staining analysis; type: functional, organism-based; details: Hepatocyte
[28] = AUC(0 to infinity) in male ICR-CD1 mouse liver at 40 mg/kg, po; type: ADME, organism-based
[29] = Mutagenicity in Salmonella typhimurium TA98 assessed as background reversion rate up to 10 uM with S-9 metabolic activation by AMES test; type: toxicity; details: salmonella enterica subsp. enterica serovar typhimurium

| SMILES | half-life [1] | IC50 (Plasmodium falciparum [2]) | Activity [3] | Activity (Plasmodium berghei [4]) | Tmax [5] | selectivity ratio at 96 h [6] | AUC [7] | IC50 (Plasmodium cynomolgi [8]) | selectivity ratio at 96 h [9] | Activity [10] | Activity (Plasmodium yoelii [12]) | Activity [13] | Activity [14] | Activity [15] | Activity [16] | IC50 (Plasmodium cynomolgi [17]) | Activity (Plasmodium yoelii [18]) | IC50 (Plasmodium falciparum [19]) | selectivity ratio at 96 h [20] | selectivity ratio at 96 h [21] | further results |
| --- | --- | --- | --- | --- | --- | --- | --- | --- | --- | --- | --- | --- | --- | --- | --- | --- | --- | --- | --- | --- | --- |
| O=c1c2c([nH]c3cc(Oc4ccc(OC(F)(F)F)cc4)c(F)cc13)CCCC2 | 4.3 h | 0.268 nM | Non-toxic | Active | 0.5 h | 31.1 | 0.603% | 2080 nM | 1.29 | Non-toxic | Active | Non-toxic | Non-toxic | Non-toxic | Non-toxic | 100 nM | Active | 0.384 nM | 5.18 | 1.49 | Activity (Plasmodium berghei [11]; time lower 24.0 hrs, time upper […]): Not active; Out Of 5 - 0 Mouse Cured; Cmax [22]: 654 ng/mL; IC50 (Plasmodium falciparum [23]): 0.015 nM; CC50 (Hepatocyte): 3110 nM; Cmax [24]: 42.1 ng/mL; CLH [25]: 74.9 µL/min/mg; MRT last [26]: 5.64 h; IC50 (Plasmodium cynomolgi [27]): 600 nM; AUC(0-inf) [28]: 5510 ng·h/mL; Activity [29]: Non-toxic |
| O=c1c2c([nH]c3cc(Oc4ccc(OC(F)(F)F)cc4)ccc13)CCCC2 | 2.84 h | 0.253 nM | Non-toxic | Active | 4 h | 4.69 | 0.12% | 550 nM | 1.61 | Non-toxic | Active | Non-toxic | Non-toxic | Non-toxic | Non-toxic | 130 nM | Active | 0.295 nM | 1.79 | 1.11 | Activity (Plasmodium berghei [11]; time 24-72 hrs): 100%; Cmax [22]: 6080 ng/mL; IC50 (Plasmodium falciparum [23]): 0.31 nM; CC50 (Hepatocyte): 610 nM; Cmax [24]: 83 ng/mL; CLH [25]: 117 µL/min/mg; MRT last [26]: 5.16 h; IC50 (Plasmodium cynomolgi [27]): 340 nM; AUC(0-inf) [28]: 33000 ng·h/mL; Activity [29]: Non-toxic |
